# Measurements as given in patent US20060247261A1 (priority 2002, published 2006).
# Target: T1, human cannabinoid CB2 receptor (Homo sapiens, UniProt P34972)
# T1 construct: expressed in transfected cells; host or cells: Saccharomyces cerevisiae strain MMY23 (expresses a chimeric Gpa1/human Galpha-i3 G-protein alpha subunit)
# Assay: Cannabinoid CB2 receptor agonist activity, yeast reporter assay
# Format: cell-based
# Settings: for Emax: read-out: efficacy (Emax) at the cloned human cannabinoid CB2 receptor
# Source text: Yeast (Saccharomyces cerevisiae) cells expressing the human cannabinoid CB2 receptor were generated by integration of an expression cassette into the ura3 chromosomal locus of yeast strain MMY23. This cassette consisted of DNA sequence encoding the human CB2 receptor flanked by the yeast GPD promoter to the 5′ end of CB2 and a yeast transcriptional terminator sequence to the 3′ end of CB2. MMY23 expresses a yeast/mammalian chimeric G-protein alpha subunit in which the C-terminal 5 amino acids of Gpa1 are replaced with the C-terminal 5 amino acids of human Gαi3 (as described in Brown et al. (2000), Yeast 16:11-22).
# Agonists were prepared as 10 mM stocks in DMSO. […] Agonist solutions in DMSO (1% final assay volume) were transferred into black, clear bottom, microtitre plates from NUNC (96- or 384-well). […] Fluorescence was plotted against compound concentration and iteratively curve fitted using a four parameter fit to generate a concentration effect value.
# T1 sequence (P34972 whole entry): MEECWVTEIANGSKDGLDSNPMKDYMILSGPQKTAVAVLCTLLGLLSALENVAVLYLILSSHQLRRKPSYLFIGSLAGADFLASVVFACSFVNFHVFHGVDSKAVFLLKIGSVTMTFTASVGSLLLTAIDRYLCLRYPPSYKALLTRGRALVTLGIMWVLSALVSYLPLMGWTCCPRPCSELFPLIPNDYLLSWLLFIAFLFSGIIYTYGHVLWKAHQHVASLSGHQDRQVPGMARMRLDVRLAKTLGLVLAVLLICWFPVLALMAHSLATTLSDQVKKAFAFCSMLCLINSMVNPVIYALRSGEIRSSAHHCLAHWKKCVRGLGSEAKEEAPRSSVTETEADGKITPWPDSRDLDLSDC
Compound,EC50 [nM],Emax [%]
"Cc1ccc(CNC(=O)c2cnc(Nc3cccc(Cl)c3)nc2C(F)(F)F)cc1 [Example 78, 2-(3-Chloro-phenylamino)-4-trifluoromethyl-pyrimidine-5-carboxylic acid N-(4-methyl-benzyl)amide]",> 1000,< 50
"O=C(NCc1ccc(F)c(F)c1)c1cnc(Nc2cccc(Cl)c2)nc1C(F)(F)F [Example 81, 2-(3-Chloro-phenylamino)-4-trifluoromethyl-pyrimidine-5-carboxylic acid 3,4-difluoro-benzylamide]",20 to 1000,> 50
"O=C(NCc1ccc(F)cc1)c1cnc(Nc2ccc(F)c(Cl)c2)nc1C(F)(F)F [Example 82, 2-(3-Chloro-4-fluoro-phenylamino)-4-trifluoromethyl-pyrimidine-5-carboxylic acid 4-fluoro-benzylamide]",20 to 1000,> 50
"O=C(NCc1ccc(F)cc1)c1cnc(Nc2cccc(Cl)c2F)nc1C(F)(F)F [Example 83, 2-(3-Chloro-2-fluoro-phenylamino)-4-trifluoromethyl-pyrimidine-5-carboxylic acid 4-fluoro-benzylamide]",20 to 1000,> 50
"O=C(NCc1ccc(F)cc1)c1cnc(Nc2cc(Cl)ccc2F)nc1C(F)(F)F [Example 84, 2-(5-Chloro-2-fluoro-phenylamino)-4-trifluoromethyl-pyrimidine-5-carboxylic acid 4-fluoro-benzylamide]",20 to 1000,> 50
"O=C(NCc1ccc(F)cc1)c1cnc(Nc2cc(F)cc(F)c2)nc1C(F)(F)F [Example 85, 2-(3,5-Difluoro-phenylamino)-4-trifluoromethyl-pyrimidine-5-carboxylic acid 4-fluoro-benzylamide]",20 to 1000,> 50
"N#Cc1ccc(Nc2ncc(C(=O)NCc3ccc(F)cc3)c(C(F)(F)F)n2)cc1Cl [Example 86, 2-(3-Chloro-4-cyano-phenylamino)-4-trifluoromethyl-pyrimidine-5-carboxylic acid 4-fluoro-benzylamide]",20 to 1000,> 50
COc1cccc(Nc2ncc(C(=O)NCc3ccncc3)c(C(F)(F)F)n2)c1 [Example 87],20 to 1000,> 50
"O=C(NCc1ccnc(F)c1)c1cnc(Nc2cccc(Br)c2)nc1C(F)(F)F [Example 88, 2-(3-Bromo-phenylamino)-4-trifluoromethyl-pyrimidine-5-carboxylic acid (2-fluoro-pyridin4-ylmethyl)-amide]",20 to 1000,> 50
"O=C(NCc1ccnc(F)c1)c1cnc(Nc2cccc(F)c2)nc1C(F)(F)F [Example 89, 2-(3-Fluoro-phenylamino)-4-trifluoromethyl-pyrimidine-5-carboxylic acid (2-fluoro-pyridin-4-ylmethyl)-amide]",20 to 1000,> 50
"O=C(NCc1ccnc(F)c1)c1cnc(Nc2cc(Cl)ccc2Cl)nc1C(F)(F)F [Example 90, 2-(2,5-Dichloro-phenylamino)-4-trifluoromethyl-pyrimidine-5-carboxylic acid (2-fluoro-pyridin-4-ylmethyl)-amide]",20 to 1000,> 50
"O=C(NCc1ccnc(F)c1)c1cnc(Nc2cc(Cl)cc(Cl)c2)nc1C(F)(F)F [Example 91, 2-(3,5-Dichloro-phenylamino)-4-trifluoromethyl-pyrimidine-5-carboxylic acid (2-fluoro-pyridin-4-ylmethyl)-amide]",20 to 1000,> 50
"O=C(NCc1ccnc(F)c1)c1cnc(Nc2ccc(Cl)c(Cl)c2)nc1C(F)(F)F [Example 92, 2-(3,4-Dichloro-phenylamino)-4-trifluoromethyl-pyrimidine-5-carboxylic acid (2-fluoro-pyridin-4-ylmethyl)-amide]",20 to 1000,> 50
"O=C(NCc1ccnc(F)c1)c1cnc(Nc2c(Cl)cccc2Cl)nc1C(F)(F)F [Example 93, 2-(2,6-Dichloro-phenylamino)-4-trifluoromethyl-pyrimidine-5-carboxylic acid (2-fluoro-pyridin-4-ylmethyl)-amide]",20 to 1000,> 50
"O=C(NCc1ccnc(F)c1)c1cnc(Nc2cccc(Cl)c2Cl)nc1C(F)(F)F [Example 94, 2-(2,3-Dichloro-phenylamino)-4-trifluoromethyl-pyrimidine-5-carboxylic acid (2-fluoro-pyridin-4-ylmethyl)-amide]",20 to 1000,> 50
"O=C(NCc1ccnc(F)c1)c1cnc(Nc2ccc(Cl)cc2Cl)nc1C(F)(F)F [Example 95, 2-(2,4-Dichloro-phenylamino)-4-trifluoromethyl-pyrimidine-5-carboxylic acid (2-fluoro-pyridin-4-ylmethyl)-amide]",20 to 1000,> 50

Compound,EC50 [nM],Emax [%]
"CN(Cc1ccccc1)C(=O)c1cnc(Nc2ccccc2Cl)nc1C(F)(F)F [Example 96, 2-(2-Chloro-phenylamino)-4-trifluoromethyl-pyrimidine-5-carboxylic acid benzyl-methyl-amide]",,> 50
"N#Cc1cccc(Nc2ncc(C(=O)NCc3ccccc3)c(C(F)(F)F)n2)c1 [Example 97, 2-(3-Cyano-phenylamino)-4-trifluoromethyl-pyrimidine-5-carboxylic acid benzylamide]",20 to 1000,> 50
"O=C(NCc1ccccc1)c1cnc(Nc2c(Cl)cccc2Cl)nc1C(F)(F)F [Example 98, 2-(2,6-Dichloro-phenylamino)-4-trifluoromethyl-pyrimidine-5-carboxylic acid benzylamide]",20 to 1000,> 50
"O=C(NCc1ccc(F)cc1)c1cnc(Nc2cccc(Cl)c2Cl)nc1C(F)(F)F [Example 99, 2-(2,3-Dichloro-phenylamino)-4-trifluoromethyl-pyrimidine-5-carboxylic acid 4-fluoro-benzylamide]",20 to 1000,> 50
"O=C(NCc1ccc(F)cc1)c1cnc(Nc2ccc(Cl)cc2Cl)nc1C(F)(F)F [Example 100, 2-(2,4-Dichloro-phenylamino)-4-trifluoromethyl-pyrimidine-5-carboxylic acid 4-fluoro-benzylamide]",20 to 1000,> 50
"O=C(NCc1ccc(F)cc1)c1cnc(Nc2cc(Cl)ccc2Cl)nc1C(F)(F)F [Example 101, 2-(2,5-Dichloro-phenylamino)-4-trifluoromethyl-pyrimidine-5-carboxylic acid 4-fluoro-benzylamide]",20 to 1000,> 50
"O=C(NCc1ccc(F)cc1)c1cnc(Nc2ccc(Cl)c(Cl)c2)nc1C(F)(F)F [Example 102, 2-(3,4-Dichloro-phenylamino)-4-trifluoromethyl-pyrimidine-5-carboxylic acid 4-fluoro-benzylamide]",20 to 1000,> 50
"O=C(NCc1ccc(F)cc1F)c1cnc(Nc2cccc(Cl)c2)nc1C(F)(F)F [Example 103, 2-(3-Chloro-phenylamino)-4-trifluoromethyl-pyrimidine-5-carboxylic acid 2,4-difluoro-benzylamide]",20 to 1000,> 50
"O=C(NCc1ccc(F)cc1)c1cnc(Nc2ccc(C(F)(F)F)c(F)c2)nc1C(F)(F)F [Example 104, 2-(3-Fluoro-4-trifluoromethyl-phenylamino)-4-trifluoromethyl-pyrimidine-5-carboxylic acid 4-fluoro-benzylamide]",20 to 1000,> 50
"NC(=O)c1ccc(CNC(=O)c2cnc(Nc3cccc(Cl)c3)nc2C(F)(F)F)cc1 [Example 105, 2-(3-Chloro-phenylamino)-4-trifluoromethyl-pyrimidine-5-carboxylic acid 4-carbarnoyl-benzylamide]",> 1000,< 50
"CC(C)(C)c1ccc(CNC(=O)c2cnc(Nc3cccc(Cl)c3)nc2C(F)(F)F)cc1 [Example 106, 2-(3-Chloro-phenylamino)-4-trifluoromethyl-pyrimidine-5-carboxylic acid 4-tert-butyl-benzylamide]",> 1000,< 50
CC(C)(C)OC(=O)Nc1ccc(CNC(=O)c2cnc(Nc3cccc(Cl)c3)nc2C(F)(F)F)cc1 [Example 107],> 1000,< 50
"C[C@@H](NC(=O)c1cnc(Nc2cccc(Cl)c2)nc1C(F)(F)F)c1ccccc1 [Example 108, 2-(3-Chloro-phenylamino)-4-trifluoromethyl-pyrimidine-5-carboxylic acid ((R)-1-phenyl-ethyl)-amide]",> 1000,< 50
"O=C(NCc1ccc(F)c(Cl)c1)c1cnc(Nc2cccc(Cl)c2)nc1C(F)(F)F [Example 109, 2-(3-Chloro-phenylamino)-4-trifluoromethyl-pyrimidine-5-carboxylic acid 3-chloro,4-fluoro-benzylamide]",> 1000,< 50
"CN(Cc1ccc(F)cc1)C(=O)c1cnc(Nc2cccc(Cl)c2)nc1C(F)(F)F [Example 110, 2-(3-Chloro-phenylamino)-4-trifluoromethyl-pyrimidine-5-carboxylic acid (4-fluoro-benzyl)-methyl-amide]",> 1000,< 50
"O=C(NCc1ccc(F)cc1)c1cnc(Nc2ccc(OC(F)(F)F)c(Cl)c2)nc1C(F)(F)F [Example 111, 2-(3-Chloro-4-trifluoromethoxy-phenylamino)-4-trifluoromethyl-pyrimidine-5-carboxylic acid 4-fluoro-benzylamide]",> 1000,< 50
